The supplement of paper PMC11616607

What was measured:
Assay in all cases: drug sensitivity score (DSS) from 5-point dose-response viability curve (DSS (area-under-curve based score)); higher = more sensitive (stronger growth inhibition or killing); extreme values may be limits of the assay
Conditions in all cases: exposure time: 72 h; concentration range: 5 concentrations over 10,000-fold range
[1] = test system: COV362
Outline: (§1)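 Drugs in DMSO or water were acoustically dispensed (Echo 550) into 384-well plates at five concentrations across a 10,000-fold range. Ovarian cancer and normal ovarian cells (1,500 per well) were then added, incubated for 3 days at 37°C with 5% CO2, and read for viability by CellTiter-Glo luminescence on a PHERAstar FS. From these readings, Breeze software derived a drug sensitivity score per cell line and drug, with higher values meaning more sensitive and zero meaning no response.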

[2] = test system: OVCAR5
Outline: as §1

[3] = test system: HOSE1C
Outline: as §1

[4] = test system: Kuramochi
Outline: as §1

[5] = test system: Ovsaho
Outline: as §1

[6] = test system: JHOS2
Outline: as §1

[7] = test system: OVCAR4
Outline: as §1

[8] = test system: OV90
Outline: as §1

[9] = test system: CAOV3
Outline: as §1

[10] = test system: OVCAR8
Outline: as §1

[11] = test system: COV318
Outline: as §1

[12] = test system: HOSE2C
Outline: as §1

SMILES	drug sensitivity score [1]	drug sensitivity score [2]	drug sensitivity score [3]	drug sensitivity score [4]	drug sensitivity score [5]	drug sensitivity score [6]	drug sensitivity score [7]	drug sensitivity score [8]	drug sensitivity score [9]	drug sensitivity score [10]	drug sensitivity score [11]	drug sensitivity score [12]
CCCc1cc(C)[nH]c(=O)c1CNC(=O)c1cc(-c2ccnc(N3CCN(C)CC3)c2)cc2c1cnn2C(C)C [GSK343]	0	0	0	0	0	0	0	0	0	0	0	0
CCCOc1ccn2c(C(C)=O)cc(-c3ccccc3S(C)(=O)=O)c2c1 [GSK2801]	0	0	0	0.4	0	0	0	0	0	0	0	0
CCOC(=O)CCNc1cc(N2CCc3ccccc3CC2)nc(-c2ccccn2)n1 [GSK-J4]	0	0.6	2.5	9	1.9	0	2.9	4.6	1.6	1.5	6.9	0.8
C[C@@H]1C=C2C(=O)O[C@@H]3CC[C@H](C1)[C@]23O [Galiellalactone]	2.9	7.6	8.1	0	4.6	5.6	6.5	7.1	6.1	3.6	3.8	7.3
Cc1cccc(-c2nn3c(c2-c2ccnc4ccc(C(N)=O)cc24)CCC3)n1 [Galunisertib]	1.8	0	0	0	0	0	0	0	0	0	0.3	0
Cc1cc(Nc2cc(CN3CCOCC3)c3nc(C)c(Cc4ccc(Cl)cc4F)n3n2)n[nH]1 [Gandotinib]	4.6	5.8	5.9	5.9	6.7	3.1	4	4.1	5.9	7.1	4.9	8.9
CC(C)c1cc(-c2n[nH]c(=O)n2-c2ccc3c(ccn3C)c2)c(O)cc1O [Ganetespib]	12.7	13.6	22.9	11.9	5	18	11.3	15.3	16.2	17	10.3	26.1
CN(C)C1CCN(C(=O)c2ccc(NC(=O)Nc3ccc(-c4nc(N5CCOCC5)nc(N5CCOCC5)n4)cc3)cc2)CC1 [Gedatolisib]	4.8	12.3	17.9	11.4	13.4	7.4	14.8	15.4	10	7.5	3.2	13.1
COc1cc2ncnc(Nc3ccc(F)c(Cl)c3)c2cc1OCCCN1CCOCC1 [Gefitinib]	0.3	5.6	0	1.8	3.8	1.6	1.9	4	7.2	3.3	0.5	0.3
Nc1ccn([C@@H]2O[C@H](CO)[C@@H](O)C2(F)F)c(=O)n1 [Gemcitabine]	8.1	15.5	8.2	0	3.3	12.7	0	13.5	23.6	23.6	3.5	6.7
CCc1nc(C(N)=O)c(Nc2ccc(N3CCC(N4CCN(C)CC4)CC3)c(OC)c2)nc1NC1CCOCC1 [Gilteritinib]	0.4	4.9	0	0.7	0	0	0.1	2.2	3.9	0.4	0.6	0
CCN(CC)Cc1ccc2cc(COC(=O)Nc3ccc(C(=O)NO)cc3)ccc2c1 [Givinostat]	2.2	10.8	12.3	6.2	3.2	5.3	4.1	7.7	7.3	10	4.2	8.6
CN1CC[C@@H](NC(=O)Nc2ccc(C#N)cc2)C[C@@H]1c1nc2ccccc2[nH]1 [Glasdegib]	0	0	0	0	0	0	0	0	0	0	0	0
COCCNCc1ccc(-c2cc3nccc(Oc4ccc(NC(=S)NC(=O)Cc5ccc(F)cc5)cc4F)c3s2)nc1 [Glesatinib]	1.6	1.2	2.9	0	0.2	0	0	0	0	0	0.1	1.9
CN1CCN(C2CCN(C(=O)Nc3cc(Oc4ccc(NC(=O)C5(C(=O)Nc6ccc(F)cc6)CC5)c(F)c4)ccn3)CC2)CC1 [Golvatinib]	0	0.1	0	0.8	0	0	0	1.4	0	0	0	0
